From patent US20110070190A1 (Roche Palo Alto LLC, priority 2009, published 2011) come the findings set out here.

Broadly, the IC50 is the concentration that gives 50% inhibition. Higher therefore signals a need for much substance.

This test deals with T1, HCV polymerase (NS5B570n-Con1) (Hepatitis C virus genotype 1b, UniProt Q9WMX2).
T1 construct: a 21 amino acid C-terminal deletion of full-length HCV polymerase; made in house; host or cells: E. coli BL21(DE3) pLysS, plasmid pET17b
The test is described as follows: HCV NS5B RNA polymerase activity (incorporation of radiolabeled nucleotide into acid insoluble RNA). It is filed as biochemical, HCV Con1 strain. The procedure: The enzymatic activity of HCV polymerase (NS5B570n-Con1) was measured as the incorporation of radiolabeled nucleotide monophosphates into acid insoluble RNA products. Unincorporated radiolabeled substrate was removed by filtration and scintillant was added to the washed and dried filter plate containing radiolabeled RNA product. The amount of RNA product generated by NS5B570n-Con1 at the end of the reaction was directly proportional to the amount of light emitted by the scintillant.
The HCV polymerase used in the enzymatic activity assay is a 21 amino acid C-terminal deletion of full-length HCV polymerase derived from HCV Con1 strain, genotype 1b (GenBank accession number AJ242654) (NS5B570n-Con1). The NS5B570n-Con1 was sub-cloned downstream to the T7 promoter of the plasmid expression construct pET17b and transformed into E. coli strain BL21(DE3) pLysS for protein expression. A single colony was used to start an innoculum for a 10 L culture in LB media supplemented with 100 μg/mL ampicillin at 37° C. Protein expression was induced by the addition of 0.25 mM isopropyl-β-D-thiogalactopyranoside (IPTG) when the optical density of the culture at […] was 0.8. Induction of protein expression was carried out at 30° C. for 16 h after which the cells were harvested by centrifugation. NS5B570n-Con1 was purified to homogeneity using a three-column purification protocol including subsequent column chromatography on Ni-NTA, SP-Sepharose HP and Superdex 75 resins.
Enzymatic reactions in the presence of cIRES RNA template (see paragraph [00213]) contained 20 nM cIRES RNA, 20 nM NS5B570n-Con1 enzyme, 0.5 μCi of tritiated UTP (Perkin Elmer catalog no. TRK-412; specific activity: 30 to 60 Ci/mmol;), 1 μM each ATP, CTP, and GTP, 40 mM Tris-HCl pH 8.0, 40 mM NaCl, 4 mM DTT (dithiothreitol), 4 mM MgCl2, 5 μl of compound serial diluted in DMSO, and nuclease-free water to a final reaction volume of 50 μl. Enzymatic reactions in the presence of poly A RNA template (see paragraph [00213]) contained 20 nM Poly A:oligo(rU)16 premixed (see section 0004), 20 nM NS5B570n-Con1 enzyme, 1 μCi of tritiated UTP (Perkin Elmer catalog no. TRK-412; specific activity: 30 to 60 Ci/mmol), 40 mM Tris-HCl pH 8.0, 40 mM NaCl, 4 mM DTT (dithiothreitol), 4 mM MgCl2, 5 μl of compound serial diluted in DMSO, and nuclease-free water to a final reaction volume of 50 μl. Reaction mixtures were assembled in 96-well filter plates (cat #MADVN0B, Millipore Co.) and incubated for 2 h at 30° C. Reactions were stopped by addition of 10% final (v/v) trichloroacetic acid and incubated for 40 min at 4° C. Reactions were filtered, washed with 8 reaction volumes of 10% (v/v) trichloroacetic acetic acid, 4 reaction volumes of 70% (v/v) ethanol, air dried, and 25 μl of scintillant (Microscint 20, Perkin-Elmer) was added to each reaction well.
Two RNA templates were used to assay compounds described herein. The cIRES RNA template was 377 nucleotide long and consisted of a partial complementary sequence (36 nucleotides) of the core protein, followed by 341 nucleotide of the complementary sequence of the internal ribosome entry site. The poly A RNA template (GE Amersham catalog number 27-4110) was a homopolymeric RNA pre-annealed to a oligo(rU)16 primer at a molar ratio of 3-to-1 (primer-template).
The amount of light emitted from the scintillant was converted to counts per minute (CPM) on a Topcount® plate reader (Perkin-Elmer, Energy Range: Low, Efficiency Mode: Normal, Count Time: 1 min, Background Subtract: none, Cross talk reduction: Off).
Data was analyzed in Excel® (Microsoft®) and ActivityBase® (Idbs®). The reaction in the absence of enzyme was used to determine the background signal, which was subtracted from the enzymatic reactions. Positive control reactions were performed in the absence of compound, from which the background corrected activity was set as 100% polymerase activity. All data was expressed as a percentage of the positive control. […]
For the molecule `O=C(Nc1ccc(-c2cc3c(s2)c(=O)ncn3Cc2ccc(Cl)cc2)cc1Cl)c1ccccn1` [Compound I-1, Pyridine-2-carboxylic acid {2-chloro-4-[1-(4-chloro-benzyl)-4-oxo-1,4-dihydro-thieno[3,2-d]pyrimidin-6-yl]-phenyl}-amide], the half-inhibitory concentration (IC50) came to 2 nM. The value for `Cc1ccc(C(=O)Nc2ccc(-c3cc4c(s3)c(=O)ncn4Cc3ccc(Cl)cc3)cc2)o1` [Compound I-3, 5-Methyl-furan-2-carboxylic acid {4-[1-(4-chloro-benzyl)-4-oxo-1,4-dihydro-thieno[3,2-d]pyrimidin-6-yl]-phenyl}-amide] was 9 nM; that for `Cc1cc(N)n2nc(-c3ccc(-c4cc5c(s4)c(=O)ncn5C[C@H]4CC[C@@H](C)CC4)cc3Cl)cc2n1` [Compound I-4, 6-[4-(7-amino-5-methyl-pyrazolo[1,5-a]pyrimidin-2-yl)-3-chloro-phenyl]-1-(4-methyl-cyclohexylmethyl)-1H-thieno[3,2-d]pyrimidin-4-one] was 10 nM; that for `O=c1ncn(Cc2ccc(Cl)cc2)c2cc(-c3ccc(OCc4ccc(F)cc4)cc3)sc12` [Compound I-5, 1-(4-chloro-benzyl)-6-[4-(4-fluoro-benzyloxy)-phenyl]-1H-thieno[3,2-d]pyrimidin-4-one] was 13 nM. In the case of `O=C(Nc1ccc(-c2cc3c(s2)c(=O)ncn3Cc2ccc(Cl)cc2)cc1)c1cc(F)ccc1F` [Compound I-7, N-{4-[1-(4-Chloro-benzyl)-4-oxo-1,4-dihydro-thieno[3,2-d]pyrimidin-6-yl]-phenyl}-2,5-difluoro-benzamide], the IC50 stood at 21 nM. Take `Nc1nccc(C(=O)Nc2ccc(-c3cc4c(s3)c(=O)ncn4Cc3ccc(Cl)cc3)cc2)n1` [Compound I-8, 2-Amino-pyrimidine-4-carboxylic acid {4-[1-(4-chloro-benzyl)-4-oxo-1,4-dihydro-thieno[3,2-d]pyrimidin-6-yl]-phenyl}-amide]: it took 26 nM to reach half-maximal inhibition (IC50). For the molecule `Nc1cc(C(=O)Nc2ccc(-c3cc4c(s3)c(=O)ncn4Cc3ccc(Cl)cc3)cc2)ccn1` [Compound I-9, 2-Amino-N-{4-[1-(4-chloro-benzyl)-4-oxo-1,4-dihydro-thieno[3,2-d]pyrimidin-6-yl]-phenyl}-isonicotinamide], half-maximal inhibition (IC50) was put at 29 nM. The value for `Nc1nccc(-c2ccc(-c3cc4c(s3)c(=O)ncn4Cc3ccc(Cl)cc3)cc2)n1` [Compound I-10, 6-[4-(2-Amino-pyrimidin-4-yl)-phenyl]-1-(4-chloro-benzyl)-1H-thieno[3,2-d]pyrimidin-4-one] was 29 nM; that for `COc1ccc(COc2ccc(-c3cc4c(s3)c(=O)ncn4Cc3ccc(Cl)cc3)cc2)cc1` [Compound I-11, 1-(4-chloro-benzyl)-6-[4-(4-methoxy-benzyloxy)-phenyl]-1H-thieno[3,2-d]pyrimidin-4-one] was 32 nM. The value for `O=C(Nc1ccc(-c2cc3c(s2)c(=O)ncn3Cc2ccc(Cl)cc2)cc1)c1cnccn1` [Compound I-12, Pyrazine-2-carboxylic acid {4-[1-(4-chloro-benzyl)-4-oxo-1,4-dihydro-thieno[3,2-d]pyrimidin-6-yl]-phenyl}-amide] was 32 nM.

In turn, `Cc1ccc(Cn2cnc(=O)c3sc(-c4ccc(-c5ccccc5)cc4)cc32)cc1` [Compound I-13] came in with an IC50 of 45 nM. The value for `O=C(Nc1ccc(-c2cc3c(s2)c(=O)ncn3Cc2ccc(Cl)cc2)cc1F)c1ccccc1` [Compound I-14, N-{4-[1-(4-Chloro-benzyl)-4-oxo-1,4-dihydro-thieno[3,2-d]pyrimidin-6-yl]-2-fluoro-phenyl}-benzamide] was 69 nM; that for `Cc1cc(C(=O)Nc2ccc(-c3cc4c(s3)c(=O)ncn4Cc3ccc(Cl)cc3)cc2)n[nH]1` [Compound I-15, 5-Methyl-1H-pyrazole-3-carboxylic acid {4-[1-(4-chloro-benzyl)-4-oxo-1,4-dihydro-thieno[3,2-d]pyrimidin-6-yl]-phenyl}-amide] was 70 nM.

The molecule `Cc1ncoc1C(=O)Nc1ccc(-c2cc3c(s2)c(=O)ncn3Cc2ccc(Cl)cc2)cc1` [Compound I-18, 4-Methyl-oxazole-5-carboxylic acid {4-[1-(4-chloro-benzyl)-4-oxo-1,4-dihydro-thieno[3,2-d]pyrimidin-6-yl]-phenyl}-amide] registered an IC50 of 77 nM. The value for `Cc1ccc(Cn2cnc(=O)c3sc(-c4ccc(-c5cc6ncccc6o5)cc4)cc32)cc1` [Compound I-19, 6-(4-Furo[3,2-b]pyridin-2-yl-phenyl)-1-(4-methyl-benzyl)-1H-thieno[3,2-d]pyrimidin-4-one] was 82 nM; that for `O=c1ncn(Cc2ccc(Cl)cc2)c2cc(-c3ccc(SCc4ccccc4)cc3)sc12` [Compound I-20, 6-(4-Benzylsulfanyl-phenyl)-1-(4-chloro-benzyl)-1H-thieno[3,2-d]pyrimidin-4-one] was 104 nM. Molecule `O=c1ncn(Cc2ccc(Cl)cc2)c2cc(-c3ccc(NCc4ccccn4)cc3)sc12` [Compound I-23] returned a half-inhibitory concentration (IC50) of 139 nM. `O=c1ncn(Cc2ccc(Cl)cc2)c2cc(-c3ccc(Oc4ccccc4)cc3)sc12` [Compound I-24, 1-(4-Chloro-benzyl)-6-(4-phenoxy-phenyl)-1H-thieno[3,2-d]pyrimidin-4-one] displayed an IC50 of 150 nM. As for `CCCCOc1ccc(-c2cc3c(s2)c(=O)ncn3Cc2ccc(Cl)cc2)cc1Cl` [Compound I-25, 6-(4-Butoxy-3-chloro-phenyl)-1-(4-chloro-benzyl)-1H-thieno[3,2-d]pyrimidin-4-one], half-maximal inhibition (IC50) was put at 155 nM.

`COc1cccc(C(=O)Nc2ccc(-c3cc4c(s3)c(=O)ncn4Cc3ccc(Cl)cc3)cc2Cl)c1` [Compound I-26] had an IC50 of 162 nM. The value for `O=C(CCCO)Nc1ccc(-c2cc3c(s2)c(=O)ncn3Cc2ccc(Cl)cc2)cc1Cl` [Compound I-30, N-{2-Chloro-4-[1-(4-chloro-benzyl)-4-oxo-1,4-dihydro-thieno[3,2-d]pyrimidin-6-yl]-phenyl}-4-hydroxy-butyramide] was 279 nM; that for `O=C(Nc1ccc(-c2cc3c(s2)c(=O)ncn3Cc2ccc(Cl)cc2)cc1)c1ccno1` [Compound I-32, Isoxazole-5-carboxylic acid {4-[1-(4-chloro-benzyl)-4-oxo-1,4-dihydro-thieno[3,2-d]pyrimidin-6-yl]-phenyl}-amide] was 308 nM. The value for `Cc1nnc(-c2ccc(-c3cc4c(s3)c(=O)ncn4Cc3ccc(Cl)cc3)cc2)o1` [Compound I-33, 1-(4-Chloro-benzyl)-6-[4-(5-methyl-[1,3,4]oxadiazol-2-yl)-phenyl]-1H-thieno[3,2d]pyrimidin-4-one] was 390 nM. `CC(CCO)C(=O)Nc1ccc(-c2cc3c(s2)c(=O)ncn3Cc2ccc(Cl)cc2)cc1Cl` (centres unmarked) [Compound I-35] yielded an IC50 of 517 nM. On to `Cc1ccc(Cn2cnc(=O)c3sc(-c4ccc(C(=O)O)cc4)cc32)cc1` [Compound I-36], for which the IC50 amounted to 535 nM. The value for `CC(=O)Nc1ccc(-c2cc3c(s2)c(=O)ncn3Cc2ccc(Cl)cc2)cc1` [Compound I-37, N-{4-[1-(4-Chloro-benzyl)-4-oxo-1,4-dihydro-thieno[3,2-d]pyrimidin-6-yl]-phenyl}-acetamide] was 586 nM.
